In PubChem BioAssay (NCI):
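Growth conditions: 96-well plates. Treatment: test compound, 48 hours, 5 concentrations. Analysis: linear interpolation between bracketing concentrations; unreached endpoints set to highest concentration. GI50 is the concentration that inhibits growth by half. TGI: total growth inhibition.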

Tests used:
Experiment in all cases: growth of human tumour cells (NCI), 48 h
NCI-H460 lung = tested on: NCI-H460 lung
LOX IMVI melanoma = tested on: LOX IMVI melanoma
SK-MEL-5 melanoma = tested on: SK-MEL-5 melanoma
SK-MEL-2 melanoma = tested on: SK-MEL-2 melanoma
EKVX NSCLC = tested on: EKVX NSCLC
RPMI-8226 leukemia = tested on: RPMI-8226 leukemia
PC-3 prostate = tested on: PC-3 prostate
BT-549 breast = tested on: BT-549 breast
HS 578T breast = tested on: HS 578T breast
HOP-92 NSCLC = tested on: HOP-92 NSCLC

## COc1ccc(/C(Cl)=C(\C=O)c2ccccc2)cc1OC
NCI-H460 lung
  TGI: > 100 µM
LOX IMVI melanoma
  TGI: > 100 µM
SK-MEL-5 melanoma
  TGI: > 100 µM
SK-MEL-2 melanoma
  TGI: > 100 µM
EKVX NSCLC
  TGI: > 100 µM

## Cc1cc2c(c(C(=O)NCCC(=O)N[C@@H](C)C(=O)OCc3ccccc3)c1)Oc1c(cc(C)cc1C(=O)NCCC(=O)N[C@@H](C)C(=O)OCc1ccccc1)S2
RPMI-8226 leukemia
  TGI: > 100 µM
PC-3 prostate
  TGI: > 100 µM
NCI-H460 lung
  TGI: > 100 µM
SK-MEL-5 melanoma
  TGI: > 100 µM
SK-MEL-2 melanoma
  TGI: > 100 µM
BT-549 breast
  TGI: > 100 µM
EKVX NSCLC
  TGI: > 100 µM
HS 578T breast
  TGI: > 100 µM

## COc1ccc2c(c1)CC1(O)COc3cc(OC)ccc3C1O2 (centres undefined)
HOP-92 NSCLC
  TGI: > 100 µM
RPMI-8226 leukemia
  TGI: > 100 µM
PC-3 prostate
  TGI: > 100 µM
LOX IMVI melanoma
  TGI: > 100 µM
SK-MEL-5 melanoma
  TGI: > 100 µM
SK-MEL-2 melanoma
  TGI: > 100 µM
BT-549 breast
  TGI: > 100 µM
EKVX NSCLC
  TGI: > 100 µM

## c1ccc(CCN2CCN=C2Cc2ccccc2)cc1
HOP-92 NSCLC
  TGI: 93.8 µM
RPMI-8226 leukemia
  TGI: > 100 µM
NCI-H460 lung
  TGI: > 100 µM
LOX IMVI melanoma
  TGI: > 100 µM
SK-MEL-5 melanoma
  TGI: > 100 µM
SK-MEL-2 melanoma
  TGI: > 100 µM
BT-549 breast
  TGI: > 100 µM
EKVX NSCLC
  TGI: > 100 µM
HS 578T breast
  TGI: > 100 µM

## C=CC[N+](CCO)(CCO)CCCCCCCCCCCCCCCCCC
HOP-92 NSCLC
  TGI: 3.91 µM
RPMI-8226 leukemia
  TGI: 5.45 µM
NCI-H460 lung
  TGI: 19.2 µM
LOX IMVI melanoma
  TGI: 12.6 µM
SK-MEL-5 melanoma
  TGI: 25.6 µM
SK-MEL-2 melanoma
  TGI: 32.7 µM
EKVX NSCLC
  TGI: 47.7 µM

## CCOC(=O)c1cn(CC)c2cc3c(cc2c1=O)CCS3(=O)=O
HOP-92 NSCLC
  TGI: > 100 µM
PC-3 prostate
  TGI: > 100 µM
NCI-H460 lung
  TGI: > 100 µM
SK-MEL-5 melanoma
  TGI: > 100 µM
SK-MEL-2 melanoma
  TGI: > 100 µM
BT-549 breast
  TGI: > 100 µM
EKVX NSCLC
  TGI: > 100 µM
HS 578T breast
  TGI: > 100 µM

## Cn1cc(-c2nc(-c3c[nH]c4ccncc34)cs2)c2cc(F)ccc21
HOP-92 NSCLC
  GI50: 1.65 µM
  TGI: 3.42 µM
PC-3 prostate
  GI50: 1.63 µM
  TGI: 3.17 µM
NCI-H460 lung
  GI50: 1.77 µM
  TGI: 3.42 µM
SK-MEL-5 melanoma
  GI50: 1.65 µM
  TGI: 3.03 µM
SK-MEL-2 melanoma
  GI50: 1.92 µM
  TGI: 3.58 µM
BT-549 breast
  GI50: 1.8 µM
  TGI: 3.4 µM
EKVX NSCLC
  GI50: 1.72 µM
  TGI: 3.32 µM
HS 578T breast
  GI50: 2.21 µM
  TGI: 4.74 µM

## O=C(Cc1ccccc1)N=Nc1c(O)[nH]c2ccccc12
PC-3 prostate
  TGI: > 100 µM
NCI-H460 lung
  TGI: > 100 µM
SK-MEL-5 melanoma
  TGI: > 100 µM
SK-MEL-2 melanoma
  TGI: > 100 µM
BT-549 breast
  TGI: > 100 µM
EKVX NSCLC
  TGI: > 100 µM
HS 578T breast
  TGI: > 100 µM

## O=C(NN1C(=O)CSC1c1ccco1)c1ccncc1 (centres undefined)
HOP-92 NSCLC
  TGI: > 100 µM
RPMI-8226 leukemia
  TGI: > 100 µM
PC-3 prostate
  TGI: > 100 µM
NCI-H460 lung
  TGI: > 100 µM
SK-MEL-5 melanoma
  TGI: > 100 µM
SK-MEL-2 melanoma
  TGI: > 100 µM
BT-549 breast
  TGI: > 100 µM
EKVX NSCLC
  TGI: > 100 µM

## CCCCCCCC(=O)OCC(C[As](=O)(O)O)OC(=O)CCCCCCC (centres undefined)
HOP-92 NSCLC
  TGI: 25.4 µM
RPMI-8226 leukemia
  TGI: > 100 µM
SK-MEL-5 melanoma
  TGI: 32 µM
EKVX NSCLC
  TGI: 33.8 µM

## C[C@H](N)C(=O)N[C@@H]1[C@H]2C(=C(O)C[C@@H](O)[C@@H]2O)C(=O)O[C@@H]1C
HOP-92 NSCLC
  TGI: > 100 µM
RPMI-8226 leukemia
  TGI: > 100 µM
NCI-H460 lung
  TGI: > 100 µM
LOX IMVI melanoma
  TGI: > 100 µM
SK-MEL-5 melanoma
  TGI: > 100 µM
SK-MEL-2 melanoma
  TGI: > 100 µM
EKVX NSCLC
  TGI: > 100 µM

## CC(C)=CCCC1(Sc2ccccc2)C(=O)OCC1C=C(C)C (centres undefined)
RPMI-8226 leukemia
  TGI: 48.1 µM
PC-3 prostate
  TGI: > 100 µM
NCI-H460 lung
  TGI: > 100 µM
LOX IMVI melanoma
  TGI: 30.1 µM
SK-MEL-5 melanoma
  TGI: 36.7 µM
SK-MEL-2 melanoma
  TGI: 55.8 µM
BT-549 breast
  TGI: > 100 µM
EKVX NSCLC
  TGI: 79.7 µM

## CCCCNC(=S)c1ccc(OC(=O)Nc2ccc(Cl)cc2)cc1
RPMI-8226 leukemia
  TGI: > 100 µM
PC-3 prostate
  TGI: > 100 µM
NCI-H460 lung
  TGI: > 100 µM
LOX IMVI melanoma
  TGI: > 100 µM
SK-MEL-5 melanoma
  TGI: > 100 µM
SK-MEL-2 melanoma
  TGI: > 100 µM
BT-549 breast
  TGI: > 100 µM
EKVX NSCLC
  TGI: > 100 µM
HS 578T breast
  TGI: > 100 µM

## N#CCOc1cccc(C2(N3CC=CCC3)CCCCC2)c1
RPMI-8226 leukemia
  TGI: > 100 µM
PC-3 prostate
  TGI: > 100 µM
LOX IMVI melanoma
  TGI: > 100 µM
SK-MEL-5 melanoma
  TGI: > 100 µM
SK-MEL-2 melanoma
  TGI: > 100 µM
BT-549 breast
  TGI: > 100 µM
EKVX NSCLC
  TGI: > 100 µM
HS 578T breast
  TGI: > 100 µM

## COC(=O)c1c(O)ccc2c1c1c(n2Cc2ccccc2OC)C(=O)c2ccccc2C1
RPMI-8226 leukemia
  TGI: 72.2 µM
PC-3 prostate
  TGI: 78.8 µM
NCI-H460 lung
  TGI: > 100 µM
LOX IMVI melanoma
  TGI: > 100 µM
SK-MEL-5 melanoma
  TGI: > 100 µM
SK-MEL-2 melanoma
  TGI: > 100 µM
BT-549 breast
  TGI: > 100 µM
HS 578T breast
  TGI: > 100 µM

## Cc1oncc1NC1=CC(=O)C(=O)c2ccccc21
HOP-92 NSCLC
  TGI: 24 µM
PC-3 prostate
  TGI: 10 µM
NCI-H460 lung
  TGI: 20.3 µM
LOX IMVI melanoma
  TGI: 10.5 µM
SK-MEL-5 melanoma
  TGI: 3.68 µM
BT-549 breast
  TGI: 25 µM
EKVX NSCLC
  TGI: 32.5 µM
HS 578T breast
  TGI: 71.5 µM

## Cc1nc2c(Cl)cc(Cl)cc2c(Cl)c1CCCl
RPMI-8226 leukemia
  TGI: > 100 µM
PC-3 prostate
  TGI: > 100 µM
NCI-H460 lung
  TGI: > 100 µM
LOX IMVI melanoma
  TGI: > 100 µM
SK-MEL-5 melanoma
  TGI: > 100 µM
SK-MEL-2 melanoma
  TGI: > 100 µM
BT-549 breast
  TGI: > 100 µM
EKVX NSCLC
  TGI: > 100 µM
HS 578T breast
  TGI: > 100 µM

## Cc1cc(C)c2c(=N)c3ccccc3n(CCCCCCn3c4ccccc4c(=N)c4c(C)cc(C)nc43)c2n1
HOP-92 NSCLC
  TGI: 2.94 µM
PC-3 prostate
  TGI: 2.81 µM
SK-MEL-5 melanoma
  TGI: 3.39 µM
SK-MEL-2 melanoma
  TGI: 2.97 µM
BT-549 breast
  TGI: 2.91 µM
EKVX NSCLC
  TGI: 3.29 µM

## CC(C)(C)OC(=O)N1Cc2cc(O)ccc2C[C@H]1C(=O)O
HOP-92 NSCLC
  TGI: > 100 µM
PC-3 prostate
  TGI: > 100 µM
NCI-H460 lung
  TGI: > 100 µM
LOX IMVI melanoma
  TGI: > 100 µM
SK-MEL-5 melanoma
  TGI: > 100 µM
SK-MEL-2 melanoma
  TGI: > 100 µM
EKVX NSCLC
  TGI: > 100 µM
HS 578T breast
  TGI: > 100 µM

## COc1cc(/C=c2/c3ccccc3n3c2cc(-c2ccccc2)[n+]3C)cc(OC)c1OC
HOP-92 NSCLC
  TGI: 12.3 µM
RPMI-8226 leukemia
  TGI: > 32.1 µM
PC-3 prostate
  TGI: 14.6 µM
NCI-H460 lung
  TGI: 17.1 µM
LOX IMVI melanoma
  TGI: 12.6 µM
SK-MEL-5 melanoma
  TGI: 6.73 µM
SK-MEL-2 melanoma
  TGI: 8.06 µM
BT-549 breast
  TGI: 11.8 µM
EKVX NSCLC
  TGI: 22.4 µM

## CC1C2CC(CC2N)C1(C)C (centres undefined)
HOP-92 NSCLC
  TGI: > 100 µM
PC-3 prostate
  TGI: > 100 µM
NCI-H460 lung
  TGI: > 100 µM
SK-MEL-5 melanoma
  TGI: > 100 µM
BT-549 breast
  TGI: > 100 µM
EKVX NSCLC
  TGI: > 100 µM
HS 578T breast
  TGI: > 100 µM

## CCOC(=O)C1=CC(C)(C(=O)OCC)Nc2c(nc(SC)n(C)c2=O)N1 (centres undefined)
HOP-92 NSCLC
  TGI: > 10 µM
RPMI-8226 leukemia
  TGI: > 10 µM
PC-3 prostate
  TGI: > 10 µM
NCI-H460 lung
  TGI: > 10 µM
LOX IMVI melanoma
  TGI: > 10 µM
SK-MEL-5 melanoma
  TGI: > 10 µM
SK-MEL-2 melanoma
  TGI: > 10 µM
BT-549 breast
  TGI: > 10 µM
EKVX NSCLC
  TGI: > 10 µM

## COc1ccc(/C=N/n2cnc3c(c2=O)S/C(=C2/SC(=S)N(c4ccc(C)cc4)C2=O)N3c2ccccc2)cc1
HOP-92 NSCLC
  TGI: > 100 µM
RPMI-8226 leukemia
  TGI: > 100 µM
NCI-H460 lung
  TGI: > 100 µM
LOX IMVI melanoma
  TGI: > 100 µM
SK-MEL-2 melanoma
  TGI: > 100 µM
EKVX NSCLC
  TGI: > 100 µM

## N/C(=N\N=C\c1cc2c(cc1Cl)OCO2)NO
HOP-92 NSCLC
  TGI: > 95.1 µM
RPMI-8226 leukemia
  TGI: > 72.8 µM
NCI-H460 lung
  TGI: > 100 µM
LOX IMVI melanoma
  TGI: > 100 µM
SK-MEL-5 melanoma
  TGI: 58.9 µM
SK-MEL-2 melanoma
  TGI: > 88.3 µM
EKVX NSCLC
  TGI: > 100 µM
